Results as given in paper PMC2096529 (Purinergic Signalling, 2005).
pEC50: −log10 of the molar value.

Key:
Assay in all cases: Fluo-3 calcium mobilization, FLIPR, […]1 cells
Format in all cases: cell-based
[1] = target: human P2Y1 receptor (Homo sapiens, UniProt P47900)
[2] = target: human P2Y2 receptor (Homo sapiens, UniProt P41231)
[3] = target: human P2Y6 receptor (Homo sapiens, UniProt Q15077)
[4] = target: human P2Y4 receptor (Homo sapiens, UniProt P51582)
Sequence of human P2Y4 receptor (P51582 whole entry): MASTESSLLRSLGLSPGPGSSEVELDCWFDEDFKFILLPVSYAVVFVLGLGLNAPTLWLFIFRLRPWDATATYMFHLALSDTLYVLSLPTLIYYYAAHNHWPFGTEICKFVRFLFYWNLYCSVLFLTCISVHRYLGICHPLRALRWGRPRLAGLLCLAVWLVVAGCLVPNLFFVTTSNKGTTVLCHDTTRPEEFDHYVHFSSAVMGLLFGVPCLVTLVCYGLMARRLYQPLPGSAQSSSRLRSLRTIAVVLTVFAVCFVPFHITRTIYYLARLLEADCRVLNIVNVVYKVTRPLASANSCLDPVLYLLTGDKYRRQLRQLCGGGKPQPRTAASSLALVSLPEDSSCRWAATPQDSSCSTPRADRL

Sequence of human P2Y2 receptor (P41231 whole entry): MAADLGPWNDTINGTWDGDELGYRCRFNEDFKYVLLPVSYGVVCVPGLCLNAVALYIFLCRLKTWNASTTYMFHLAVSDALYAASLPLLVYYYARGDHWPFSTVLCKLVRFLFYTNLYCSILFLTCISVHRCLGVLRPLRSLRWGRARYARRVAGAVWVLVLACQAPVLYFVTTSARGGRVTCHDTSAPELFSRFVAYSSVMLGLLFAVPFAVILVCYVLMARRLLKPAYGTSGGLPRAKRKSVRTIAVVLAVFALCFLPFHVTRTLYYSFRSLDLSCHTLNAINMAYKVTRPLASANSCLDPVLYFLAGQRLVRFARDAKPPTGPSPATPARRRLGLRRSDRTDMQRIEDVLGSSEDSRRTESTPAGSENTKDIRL
Sequence of human P2Y6 receptor (Q15077 whole entry): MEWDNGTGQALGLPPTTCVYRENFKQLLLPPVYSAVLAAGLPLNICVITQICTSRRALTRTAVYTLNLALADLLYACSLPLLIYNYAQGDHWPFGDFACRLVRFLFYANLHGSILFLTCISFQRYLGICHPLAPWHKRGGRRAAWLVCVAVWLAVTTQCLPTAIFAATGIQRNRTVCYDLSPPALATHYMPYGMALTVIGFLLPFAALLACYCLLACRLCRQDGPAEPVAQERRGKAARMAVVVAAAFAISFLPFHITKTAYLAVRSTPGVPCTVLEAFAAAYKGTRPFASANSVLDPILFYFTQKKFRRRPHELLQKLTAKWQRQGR
Sequence of human P2Y1 receptor (P47900 whole entry): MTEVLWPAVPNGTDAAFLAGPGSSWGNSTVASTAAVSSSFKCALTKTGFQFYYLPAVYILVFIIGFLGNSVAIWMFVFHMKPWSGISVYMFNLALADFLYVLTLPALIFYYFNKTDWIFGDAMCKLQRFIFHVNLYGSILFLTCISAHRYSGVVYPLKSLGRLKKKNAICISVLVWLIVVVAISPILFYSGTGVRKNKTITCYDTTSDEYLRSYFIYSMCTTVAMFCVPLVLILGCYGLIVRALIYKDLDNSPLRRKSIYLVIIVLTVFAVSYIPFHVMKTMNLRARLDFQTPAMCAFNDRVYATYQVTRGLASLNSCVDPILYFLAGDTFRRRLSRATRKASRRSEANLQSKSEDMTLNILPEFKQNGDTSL

SMILES	pEC50 [1]	pEC50 [2]	pEC50 [3]	pEC50 [4]
Nc1ncnc2c1ncn2[C@@H]1O[C@H](CO[P@](=O)(O)O[P@](=O)(O)OC[C@H]2O[C@@H](n3cnc4c(N)ncnc43)[C@H](O)[C@@H]2O)[C@@H](O)[C@H]1O [compound 13, AP2A]	5.37			
Nc1ncnc2c1ncn2[C@@H]1O[C@H](COP(=O)(O)OP(=O)(O)OC[C@H]2O[C@@H](n3ccc(=O)[nH]c3=O)[C@H](O)[C@@H]2O)[C@@H](O)[C@H]1O [compound 14, AP2U]	5.55	4.63		
Nc1ccn([C@@H]2O[C@H](COP(=O)(O)OP(=O)(O)OC[C@H]3O[C@@H](n4cnc5c(N)ncnc54)[C@H](O)[C@@H]3O)[C@@H](O)[C@H]2O)c(=O)n1 [compound 15, AP2C]	5.68	5.16	4.73	
Nc1nc2c(ncn2[C@@H]2O[C@H](COP(=O)(O)OP(=O)(O)OC[C@H]3O[C@@H](n4cnc5c(N)ncnc54)[C@H](O)[C@@H]3O)[C@@H](O)[C@H]2O)c(=O)[nH]1 [compound 16, AP2G]	4.58	5.89	5.04	5.82
Nc1nc2c(ncn2[C@H]2C[C@H](O)[C@@H](COP(=O)(O)OP(=O)(O)OC[C@H]3O[C@@H](n4cnc5c(N)ncnc54)[C@H](O)[C@@H]3O)O2)c(=O)[nH]1 [compound 17, AP2dG]	4.61		< 5.00	
Nc1nc2c(ncn2[C@H]2C[C@H](O)[C@@H](COP(=O)(O)OP(=O)(O)OC[C@H]3O[C@@H](n4ccc(=O)[nH]c4=O)[C@H](O)[C@@H]3O)O2)c(=O)[nH]1 [compound 20, UP2dG]	< 5.00	4.54	< 5.00	
O=c1[nH]c(=S)ccn1[C@@H]1O[C@H](COP(=O)(O)OP(=O)(O)OC[C@H]2O[C@@H](n3ccc(=S)[nH]c3=O)[C@H](O)[C@@H]2O)[C@@H](O)[C@H]1O [compound 23, 4-thioUP24-thioU]	< 5.00	4.54	4.60	4.47
Nc1ncnc2c1ncn2[C@@H]1O[C@H](COP(=O)(O)OP(=O)(O)OP(=O)(O)OC[C@H]2O[C@@H](n3cnc4c(N)ncnc43)[C@H](O)[C@@H]2O)[C@@H](O)[C@H]1O [compound 25, AP3A]	7.96	4.55		
Nc1ncnc2c1ncn2[C@@H]1O[C@H](COP(=O)(O)OP(=O)(O)OP(=O)(O)OC[C@H]2O[C@@H](n3ccc(=O)[nH]c3=O)[C@H](O)[C@@H]2O)[C@@H](O)[C@H]1O [compound 26, AP3U]	7.41	5.70	6.77	
Nc1ccn([C@@H]2O[C@H](COP(=O)(O)OP(=O)(O)OP(=O)(O)OC[C@H]3O[C@@H](n4cnc5c(N)ncnc54)[C@H](O)[C@@H]3O)[C@@H](O)[C@H]2O)c(=O)n1 [compound 27, AP3C]	7.07	5.22	< 5.00	
Nc1nc2c(ncn2[C@@H]2O[C@H](COP(=O)(O)OP(=O)(O)OP(=O)(O)OC[C@H]3O[C@@H](n4cnc5c(N)ncnc54)[C@H](O)[C@@H]3O)[C@@H](O)[C@H]2O)c(=O)[nH]1 [compound 28, AP3G]	6.92	6.64	5.82	6.28
Nc1ncnc2c1ncn2[C@@H]1O[C@H](COP(=O)(O)OP(=O)(O)OP(=O)(O)OC[C@H]2O[C@@H](n3cnc4c(=O)[nH]cnc43)[C@H](O)[C@@H]2O)[C@@H](O)[C@H]1O [compound 29, AP3I]	6.96	5.92	5.97	5.59
Nc1ccn([C@@H]2O[C@H](COP(=O)(O)OP(=O)(O)OP(=O)(O)OC[C@H]3O[C@@H](n4cnc5c(=O)[nH]cnc54)[C@H](O)[C@@H]3O)[C@@H](O)[C@H]2O)c(=O)n1 [compound 35, CP3I]	< 5.00	< 5.00		
Nc1ccn([C@@H]2O[C@H](COP(=O)(O)OP(=O)(O)OP(=O)(O)OC[C@H]3O[C@@H](n4ccc(=O)[nH]c4=O)C[C@@H]3O)[C@@H](O)[C@H]2O)c(=O)n1 [compound 36, CP3dU]	4.77	5.51	6.09	4.40
Nc1ncnc2c1ncn2[C@@H]1O[C@H](COP(=O)(O)OP(=O)(O)OP(=O)(O)OP(=O)(O)OC[C@H]2O[C@@H](n3cnc4c(N)ncnc43)[C@H](O)[C@@H]2O)[C@@H](O)[C@H]1O [compound 39, AP4A]	6.49	7.27		
Nc1ncnc2c1ncn2[C@@H]1O[C@H](COP(=O)(O)OP(=O)(O)OP(=O)(O)OP(=O)(O)OC[C@H]2O[C@@H](n3ccc(=O)[nH]c3=O)[C@H](O)[C@@H]2O)[C@@H](O)[C@H]1O [compound 40, AP4U]	5.32	6.46		5.84
Nc1ccn([C@@H]2O[C@H](COP(=O)(O)OP(=O)(O)OP(=O)(O)OP(=O)(O)OC[C@H]3O[C@@H](n4cnc5c(N)ncnc54)[C@H](O)[C@@H]3O)[C@@H](O)[C@H]2O)c(=O)n1 [compound 41, AP4C]	6.12	6.82		
Nc1ncnc2c1ncn2[C@@H]1O[C@H](COP(=O)(O)OP(=O)(O)OP(=O)(O)OP(=O)(O)OC[C@H]2O[C@@H](n3cnc4c(=O)[nH]cnc43)[C@H](O)[C@@H]2O)[C@@H](O)[C@H]1O [compound 42, AP4I]	6.26	6.77		
O=c1ccn([C@@H]2O[C@H](COP(=O)(O)OP(=O)(O)OP(=O)(O)OP(=O)(O)OC[C@H]3O[C@@H](n4ccc(=S)[nH]c4=O)[C@H](O)[C@@H]3O)[C@@H](O)[C@H]2O)c(=O)[nH]1 [compound 47, UP44-thioU]		7.40	3.72	6.77
O=c1ccn([C@@H]2O[C@H](COP(=O)(O)OP(=O)(O)OP(=O)(O)OP(=O)(O)OC[C@H]3O[C@@H](n4cnc5c(=O)[nH]cnc54)C[C@@H]3O)[C@@H](O)[C@H]2O)c(=O)[nH]1 [compound 48, UP4dI]		6.64	< 5.00	6.33
Nc1nc2c(ncn2[C@H]2C[C@H](O)[C@@H](COP(=O)(O)OP(=O)(O)OP(=O)(O)OP(=O)(O)OC[C@H]3O[C@@H](n4ccc(=O)[nH]c4=O)[C@H](O)[C@@H]3O)O2)c(=O)[nH]1 [compound 49, UP4dG]		7.22	5.77	6.85
Nc1ccn([C@@H]2O[C@H](COP(=O)(O)OP(=O)(O)OP(=O)(O)OP(=O)(O)OC[C@H]3O[C@@H](n4ccc(=O)[nH]c4=O)[C@H](O)[C@@H]3O)[C@@H](O)[C@@H]2O)c(=O)n1 [compound 50, UP4araC]	5.21	6.23	5.48	6.66
Nc1ncnc2c1ncn2[C@H]1C[C@H](O)[C@@H](COP(=O)(O)OP(=O)(O)OP(=O)(O)OP(=O)(O)OC[C@H]2O[C@@H](n3ccc(=O)[nH]c3=O)[C@H](O)[C@@H]2O)O1 [compound 52, UP4dA]	5.46	7.30	5.38	7.15
Nc1ccn([C@@H]2O[C@H](COP(=O)(O)OP(=O)(O)OP(=O)(O)OP(=O)(O)OC[C@H]3O[C@@H](n4ccc(=S)[nH]c4=O)[C@H](O)[C@@H]3O)[C@@H](O)[C@H]2O)c(=O)n1 [compound 55, CP44-thioU]		7.44	5.28	6.96
O=c1[nH]c(=S)ccn1[C@@H]1O[C@H](COP(=O)(O)OP(=O)(O)OP(=O)(O)OP(=O)(O)OC[C@H]2O[C@@H](n3ccc(=S)[nH]c3=O)[C@H](O)[C@@H]2O)[C@@H](O)[C@H]1O [compound 56, 4-thioUP44-thioU]		7.09	5.17	7.05
